# Data as given in US7759366B2 (Sanofi-Aventis, priority 2006, dated 2010).
# Target: T1, hCB1R (Homo sapiens, UniProt P21554)
# Assay: Binding to the CB1 receptor ([3H]-SR141716A displacement)
# Settings: not given
# Procedure: Binding to the CB1 Receptor:
# Test compounds: The compounds (3 μl, 10 mM, 100% DMSO), pipetted into 96-well PP microtiter plates, were diluted with 27 μl of 100% DMSO (dimethyl sulfoxide). Proceeding from this solution, further 3-fold dilution steps were undertaken by transferring 10 μl in each case to a new PP microtiter plate and adding a further 20 μl of 100% DMSO. In each case 6 μl of these solutions were transferred into new 96-well PP microtiter plates and made up with 144 μl of assay buffer. The end concentrations ranged from 10 μM to 0.005 μM. Negative control: AM 251, dissolved in assay buffer with 1% DMSO, was added to the dilution series in the microtiter plates as a control. The end concentration was 1 μM. Blank control: assay buffer with 1% DMSO was added to the dilution series of the microtiter plates as a blank control.
# Summary of the Assay Parameters:
# High control: ^3H binding without addition of the compound
# Low control: ^3H binding in the presence of 1 μM AM 251
# The values were calculated using the corrected raw data.
# The values reported were obtained as average values of a double determination. The IC50 values were calculated from the measurements with the program Xlfit, formula 205. Ki values were obtained from the IC50 and Kd values utilizing the Cheng-Prusoff equation: […]
# Literature: Cheng, Y.-C., and Prusoff, W. H. (1973) Biochem. Pharmacol 22, 3099-3108
# T1 sequence (P21554 whole entry): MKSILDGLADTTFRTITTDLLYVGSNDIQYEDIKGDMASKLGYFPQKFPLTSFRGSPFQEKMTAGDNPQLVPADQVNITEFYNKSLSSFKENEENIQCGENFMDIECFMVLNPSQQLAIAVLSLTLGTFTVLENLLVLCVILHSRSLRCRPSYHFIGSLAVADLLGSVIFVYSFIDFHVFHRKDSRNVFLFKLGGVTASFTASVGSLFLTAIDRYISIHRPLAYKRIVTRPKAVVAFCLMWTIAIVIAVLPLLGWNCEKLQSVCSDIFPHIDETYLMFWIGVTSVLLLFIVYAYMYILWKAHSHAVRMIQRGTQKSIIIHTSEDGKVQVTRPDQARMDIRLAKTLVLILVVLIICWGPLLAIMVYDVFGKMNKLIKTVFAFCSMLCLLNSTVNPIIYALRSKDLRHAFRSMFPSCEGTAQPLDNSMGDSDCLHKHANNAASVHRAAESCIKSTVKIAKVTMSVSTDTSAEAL
row,Structure (SMILES),Ki [nM]
1,"COc1ccc(Nc2ccccc2CN2C(=O)N(c3ccc(C#N)c(C(F)(F)F)c3)C(=O)C2(C)C)nn1 [Example 179, 4-{3-[2-(6-methoxypyridazin-3-ylamino)benzyl]-4,4-dimethyl-2,5-dioxoimidazolidin-1-yl}-2-trifluoromethylbenzonitrile]",16
2,"CCOC(=O)c1ccc(Nc2cc(C(F)(F)F)ccc2CN2C(=O)N(c3ccc(C#N)c(C(F)(F)F)c3)C(=O)C2(C)C)cc1 [Example 165, ethyl 4-{2-[3-(4-cyano-3-trifluoromethylphenyl)-5,5-dimethyl-2,4-dioxoimidazolidin-1-ylmethyl]-5-trifluoromethylphenylamino}benzoate]",16
3,CC1(C)C(=O)N(c2ccc(C#N)c(C(F)(F)F)c2)C(=O)N1Cc1ccccc1Nc1ccc(C(=O)O)cc1 [Example 62],16
4,"CC(C)(C)c1cc(N2C(=O)N(Cc3ccccc3Nc3ccccc3)C(C)(C)C2=O)ccc1C#N [Example 63, 2-tert-Butyl-4-[4,4-dimethyl-2,5-dioxo-3-(2-phenylaminobenzyl)imidazolidin-1-yl]benzonitrile]",9
5,"COC(=O)c1ccc(Nc2cc(F)ccc2CN2C(=O)N(c3ccc(C#N)c(C(C)(C)C)c3)C(=O)C2(C)C)cc1 [Example 157, methyl 4-{2-[3-(3-tert-butyl-4-cyanophenyl)-5,5-dimethyl-2,4-dioxoimidazolidin-1-ylmethyl]-5-fluorophenylamino}benzoate]",5
6,"CC1(C)C(=O)N(c2ccc(C#N)c(C(F)(F)F)c2)C(=O)N1Cc1ccccc1Nc1ccc(F)cc1C#N [Example 53, 4-{3-[2-(2-cyano-4-fluorophenylamino)benzyl]-4,4-dimethyl-2,5-dioxoimidazolidin-1-yl}-2-trifluoromethylbenzonitrile]",2
7,"CC(C)(C)OC(=O)c1ccc(Nc2cc(C#N)ccc2CN2C(=O)N(c3ccc(C#N)c(C(F)(F)F)c3)C(=O)C2(C)C)cc1 [Example 126, tert-Butyl 4-{5-cyano-2-[3-(4-cyano-3-trifluoromethylphenyl)-5,5-dimethyl-2,4-dioxoimidazolidin-1-ylmethyl]phenylamino}benzoate]",23
8,"CC1(C)C(=O)N(c2ccc(C#N)c(S(F)(F)(F)(F)F)c2)C(=O)N1Cc1ccccc1Nc1ccc(F)cc1F [Example 51, 4-{3-[2-(2,4-Difluorophenylamino)benzyl]-4,4-dimethyl-2,5-dioxoimidazolidin-1-yl}-2-pentafluorosulfanylbenzonitrile]",2

# Same assay, conditions: CHO-K1/cannabinoid CB1 protein 2 μg/well; [3H]-SR141716A 0.5 nM; Ki from IC50 by Cheng-Prusoff; average of double determination; read-out: hCB1R; binding Ki
row,Structure (SMILES),Ki [nM]
1,"CC1(C)C(=O)N(c2ccc(F)c(C(F)(F)F)c2)C(=O)N1Cc1ccc(F)cc1Nc1ccc(C(=O)NC[C@H](O)[C@@H](O)[C@H](O)[C@H](O)CO)cc1 [Example 170, 4-{5-Fluoro-2-[3-(4-fluoro-3-trifluoromethylphenyl)-5,5-dimethyl-2,4-dioxoimidazolidin-1-ylmethyl]phenylamino}-N-((2S,3R,4R,5R)-2,3,4,5,6-pentahydroxyhexyl)benzamide]",113
2,CC1(C)C(=O)N(c2ccc(C#N)c(C(F)(F)F)c2)C(=O)N1Cc1ccccc1Nc1ccc(N(S(C)(=O)=O)S(C)(=O)=O)cc1 [Example 176],130
3,"CC1(C)C(=O)N(c2ccc(F)c(C(F)(F)F)c2)C(=O)N1Cc1ccccc1Nc1ccc(Cl)cc1 [Example 25, 1-[2-(4-chlorophenylamino)benzyl]-3-(4-fluoro-3-trifluoromethylphenyl)-5,5-dimethylimidazolidine-2,4-dione]",6
4,"CC1(C)C(=O)N(c2ccc(F)c(C(F)(F)F)c2)C(=O)N1Cc1ccccc1Nc1ccc(F)cc1 [Example 24, 1-[2-(4-fluorophenylamino)benzyl]-3-(4-fluoro-3-trifluoromethylphenyl)-5,5-dimethylimidazolidine-2,4-dione]",11
5,"CCNS(=O)(=O)c1ccc(Nc2ccccc2CN2C(=O)N(c3ccc(C#N)c(C(F)(F)F)c3)C(=O)C2(C)C)cc1 [Example 151, 4-{2-[3-(4-cyano-3-trifluoromethylphenyl)-5,5-dimethyl-2,4-dioxoimidazolidin-1-ylmethyl]phenylamino}-N-ethylbenzenesulfonamide]",155

# Target: T1, hCB1R
# Assay: In vitro functional assay (FLIPR, intracellular Ca2+) with recombinant HEK293 cells, CB1
# Assay type: cell-based
# Set-up: expressed in transfected cells; host or cells: HEK293
# Settings: recombinant HEK293 cells expressing CB1 and Galpha16; 20 min preincubation, then reference agonist; Ca2+ change; read-out: hCB1R: FLIPR; IC50
# Source text: In Vitro Functional Assays with Recombinant Cells:
row,Structure (SMILES),IC50 [nM]
1,"CC1(C)C(=O)N(c2ccc(F)c(C(F)(F)F)c2)C(=O)N1Cc1ccc(F)cc1Nc1ccc(S(C)(=O)=O)cc1 [Example 213, 1-[4-fluoro-2-(4-methanesulfonylphenylamino)benzyl]-3-(4-fluoro-3-trifluoromethylphenyl)-5,5-dimethylimidazolidine-2,4-dione]",117
2,"CC1(C)C(=O)N(c2ccc(C#N)c(C(F)(F)F)c2)C(=O)N1Cc1ccc(C(F)(F)F)cc1Nc1ccc(C(=O)O)cc1 [Example 107, 4-{2-[3-(4-cyano-3-trifluoromethylphenyl)-5,5-dimethyl-2,4-dioxoimidazolidin-1-ylmethyl]-5-trifluoromethylphenylamino}benzoic acid]",112
3,"CC1(C)C(=O)N(c2ccc(C#N)c(C(F)(F)F)c2)C(=O)N1Cc1ccccc1Nc1ccc(C(=O)NCCS(=O)(=O)O)cc1 [Example 164, 2-(4-{2-[3-(4-Cyano-3-trifluoromethylphenyl)-5,5-dimethyl-2,4-dioxoimidazolidin-1-ylmethyl]phenylamino}benzoylamino)ethanesulfonic acid]",137
4,"CC1(C)C(=O)N(c2ccc(C#N)c(C(F)(F)F)c2)C(=O)N1Cc1ccccc1Nc1ccc2c(c1)COC2=O [Example 201, 4-{4,4-dimethyl-2,5-dioxo-3-[2-(1-oxo-1,3-dihydroisobenzofuran-5-ylamino)benzyl]imidazolidin-1-yl}-2-trifluoromethylbenzonitrile]",5
5,"CC1(C)C(=O)N(c2ccc(F)c(C(F)(F)F)c2)C(=O)N1Cc1ccc(F)cc1Nc1ccc2c(c1)CCC2=O [Example 206, 1-[4-fluoro-2-(1-oxoindan-5-ylamino)benzyl]-3-(4-fluoro-3-trifluoromethylphenyl)-5,5-dimethylimidazolidine-2,4-dione]",24
6,"CC1(C)C(=O)N(c2ccnc(C(F)(F)F)c2)C(=O)N1Cc1ccccc1Nc1ccccc1 [Example 65, 5,5-Dimethyl-1-(2-phenylaminobenzyl)-3-(2-trifluoromethylpyridin-4-yl)imidazolidine-2,4-dione]",145
7,"CC1(C)C(=O)N(c2ccc(C#N)c(C(F)(F)F)c2)C(=O)N1Cc1ccccc1Nc1ccccc1F [Example 44, 4-{3-[2-(2-fluorophenylamino)benzyl]-4,4-dimethyl-2,5-dioxoimidazolidin-1-yl}-2-trifluoromethylbenzonitrile]",7
8,"CC(C)(C)c1cc(N2C(=O)N(Cc3ccc(F)cc3Nc3ccc(C(=O)O)cc3)C(C)(C)C2=O)ccc1C#N [Example 169, 4-{2-[3-(3-tert-butyl-4-cyanophenyl)-5,5-dimethyl-2,4-dioxoimidazolidin-1-ylmethyl]-5-fluorophenylamino}benzoic acid]",9
9,"COC(=O)c1ccc(Nc2cc(Cl)cc(Cl)c2CN2C(=O)N(c3ccc(C#N)c(C(F)(F)F)c3)C(=O)C2(C)C)cc1 [Example 104, methyl 4-{3,5-dichloro-2-[3-(4-cyano-3-trifluoromethylphenyl)-5,5-dimethyl-2,4-dioxoimidazolidin-1-ylmethyl]phenylamino}benzoate]",15
10,"CC1(C)C(=O)N(c2ccc(F)c(C(F)(F)F)c2)C(=O)N1Cc1ccc(F)cc1Nc1ccc2c(c1)C(=O)CCC2 [Example 204, 1-[4-Fluoro-2-(8-oxo-5,6,7,8-tetrahydronaphthalen-2-ylamino)benzyl]-3-(4-fluoro-3-trifluoromethylphenyl)-5,5-dimethylimidazolidine-2,4-dione]",46
11,"CC1(C)C(=O)N(c2ccc(C#N)c(C(F)(F)F)c2)C(=O)N1Cc1ccccc1Nc1ccc(NS(C)(=O)=O)cc1 [Example 175, N-(4-{2-[3-(4-Cyano-3-trifluoromethylphenyl)-5,5-dimethyl-2,4-dioxoimidazolidin-1-ylmethyl]phenylamino}phenyl)methanesulfonamide]",9
12,"CC1(C)C(=O)N(c2ccc(C#N)c(C(F)(F)F)c2)C(=O)N1Cc1ccccc1Nc1cccc(Cl)c1 [Example 22, 4-{3-[2-(3-chlorophenylamino)benzyl]-4,4-dimethyl-2,5-dioxoimidazolidin-1-yl}-2-trifluoromethylbenzonitrile]",46
13,"CC1(C)C(=O)N(c2ccc(C#N)c(C(F)(F)F)c2)C(=O)N1Cc1cc(Cl)cc(Cl)c1Nc1ccc(F)cc1F [Example 39, 4-{3-[3,5-dichloro-6-(2,4-difluorophenylamino)benzyl]-4,4-dimethyl-2,5-dioxoimidazolidin-1-yl}-2-trifluoromethylbenzonitrile]",69
14,"COC(=O)CNc1ccc(Nc2ccccc2CN2C(=O)N(c3ccc(C#N)c(C(F)(F)F)c3)C(=O)C2(C)C)cc1 [Example 177, Methyl (4-{2-[3-(4-cyano-3-trifluoromethylphenyl)-5,5-dimethyl-2,4-dioxoimidazolidin-1-ylmethyl]phenylamino}phenylamino)acetate]",1
